Where two headings read alike, the source gives them in different places.

What is called melting point is the temperature, or range, at which the solid turns liquid.

The subject of data set [1] is human subjects. The data set can be described thus: "Difference from Reference" human taste test (sweetness). Format: in vivo. From the text:
To determine how the intensity of a test sample of an experimental compound differs from that of a reference sample in terms of sweetness. This type of study requires a larger panel (typically 15-20 Subjects) in order to obtain statistically significant data.
Subjects rate the difference in intensity of the test sample compared to the reference sample for the key attribute on a scale of −5 (much less sweet than the reference) to +5 (much more sweet than the reference). A score of 0 indicates the test sample is equally as sweet as the reference.
Ten or more Subjects are used for the “Difference from Reference” tests. Subjects have been previously familiarized with the key attribute taste and are trained to use the −5 to +5 scale. Subjects refrain from eating or drinking (except water) for at least 1 hour prior to the test. Subjects eat a cracker and rinse with water four times to clean the mouth.
Test solutions can include the experimental compound in water, the experimental compound plus a key tastant (e.g., 4% sucrose, 6% sucrose, 6% fructose, 6% fructose/glucose, or 7% fructose/glucose, at pH 7.1 or 2.8), and a range of key tastant only solutions as references.
Samples of the key tastant without the experimental compound are used to determine if the panel is rating accurately; i.e., the reference is tested against itself (blind) to determine how accurate the panel is rating on a given test day. The solutions are dispensed in 10 ml volumes into 1 oz. sample cups and served to the Subjects at room temperature.
Subjects first taste the reference sample then immediately taste the test sample and rate the difference in intensity of the key attribute on the Difference from Reference scale (−5 to +5). All samples are expectorated. Subjects may retaste the samples but can only use the volume of sample given. Subjects must rinse at least twice with water between pairs of samples. Eating a cracker between sample pairs may be required depending on the samples tasted.
The scores for each test are averaged across Subjects and standard error is calculated. Panel accuracy can be determined using the score from the blind reference test. ANOVA and multiple comparison tests (such as Tukey's Honestly Significant Difference test) can be used to determine differences among pairs, provided the reference sample is the same among all tests. If the identical test pair is tested in another session, a Student's t-test (paired, two-tailed; alpha=0.05) can be used to determine if there is any difference in the ratings between sessions.
A number of different reference sweeteners have been utilized for the measurement of sweet taste enhancement. […]

Data set [2] deals with T1, hT1R2/hT1R3 sweet receptor (Homo sapiens, UniProt Q7RTX0+Q8TE23).
T1 construct: expressed in transfected cells; host or cells: HEK293 derivative stably expressing Gα15, clone S-9
T1 sequence (Q8TE23 20-839): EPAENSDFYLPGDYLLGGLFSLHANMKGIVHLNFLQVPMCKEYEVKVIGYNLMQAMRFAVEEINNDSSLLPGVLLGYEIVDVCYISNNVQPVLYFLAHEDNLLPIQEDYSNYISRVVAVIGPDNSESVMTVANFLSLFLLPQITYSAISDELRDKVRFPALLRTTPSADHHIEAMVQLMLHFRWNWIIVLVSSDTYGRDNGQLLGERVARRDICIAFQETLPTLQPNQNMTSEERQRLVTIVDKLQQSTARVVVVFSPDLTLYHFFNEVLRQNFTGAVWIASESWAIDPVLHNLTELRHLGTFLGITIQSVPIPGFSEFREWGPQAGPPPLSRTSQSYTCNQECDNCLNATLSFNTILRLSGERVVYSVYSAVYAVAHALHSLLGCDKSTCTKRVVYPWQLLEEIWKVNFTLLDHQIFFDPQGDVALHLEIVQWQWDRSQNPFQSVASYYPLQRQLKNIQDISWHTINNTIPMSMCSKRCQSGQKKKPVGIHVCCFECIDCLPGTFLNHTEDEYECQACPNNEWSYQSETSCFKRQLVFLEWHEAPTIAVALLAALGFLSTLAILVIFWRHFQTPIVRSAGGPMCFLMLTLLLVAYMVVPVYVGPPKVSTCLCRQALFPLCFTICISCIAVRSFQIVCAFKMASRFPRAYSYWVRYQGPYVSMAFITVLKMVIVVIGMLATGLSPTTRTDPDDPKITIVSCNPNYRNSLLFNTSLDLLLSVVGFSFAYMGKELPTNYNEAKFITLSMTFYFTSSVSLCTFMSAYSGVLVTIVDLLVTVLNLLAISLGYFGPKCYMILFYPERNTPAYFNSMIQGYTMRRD
T1 sequence (Q7RTX0 21-852): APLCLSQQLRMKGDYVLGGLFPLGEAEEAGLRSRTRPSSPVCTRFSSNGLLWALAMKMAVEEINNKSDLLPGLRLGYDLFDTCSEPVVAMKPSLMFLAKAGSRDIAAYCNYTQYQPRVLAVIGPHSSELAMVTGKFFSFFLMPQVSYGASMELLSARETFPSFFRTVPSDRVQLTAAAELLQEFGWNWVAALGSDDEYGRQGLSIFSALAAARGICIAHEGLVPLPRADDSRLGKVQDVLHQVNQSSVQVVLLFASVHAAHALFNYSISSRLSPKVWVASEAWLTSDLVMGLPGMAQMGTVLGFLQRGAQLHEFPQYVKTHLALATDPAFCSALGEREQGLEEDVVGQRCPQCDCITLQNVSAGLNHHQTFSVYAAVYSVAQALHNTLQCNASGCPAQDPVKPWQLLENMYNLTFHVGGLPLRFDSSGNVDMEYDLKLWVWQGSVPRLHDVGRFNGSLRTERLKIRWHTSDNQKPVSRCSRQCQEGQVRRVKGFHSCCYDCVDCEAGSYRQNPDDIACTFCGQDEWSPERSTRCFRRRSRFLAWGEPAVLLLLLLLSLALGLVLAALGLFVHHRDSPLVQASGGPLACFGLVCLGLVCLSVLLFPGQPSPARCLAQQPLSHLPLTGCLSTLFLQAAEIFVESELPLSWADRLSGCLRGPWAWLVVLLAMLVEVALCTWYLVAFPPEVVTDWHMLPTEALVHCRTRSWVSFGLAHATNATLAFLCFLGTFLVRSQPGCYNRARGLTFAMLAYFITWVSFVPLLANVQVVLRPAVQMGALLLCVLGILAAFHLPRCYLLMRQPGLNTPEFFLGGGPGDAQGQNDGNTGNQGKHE
In words: In vitro hT1R2/hT1R3 sweet taste receptor activation assay (FLIPR, dose response). Format: cell-based. A digest of the protocol: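 S-9 cells expressing hT1R2/hT1R3, loaded with 4 µM Fluo-3AM 1 h at room temperature. Calcium response on FLIPR at room temperature in D-PBS, with 10 concentrations from 60 nM to 30 µM in duplicate.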

For data set [3], the target named is T2, hT1R1/hT1R3 umami receptor (Homo sapiens, UniProt Q7RTX0+Q7RTX1).
T2 construct: expressed in transfected cells; host or cells: HEK293 derivative stably expressing Gα15, clone I-17, expression induced with mifepristone
T2 sequence (Q7RTX1 21-841): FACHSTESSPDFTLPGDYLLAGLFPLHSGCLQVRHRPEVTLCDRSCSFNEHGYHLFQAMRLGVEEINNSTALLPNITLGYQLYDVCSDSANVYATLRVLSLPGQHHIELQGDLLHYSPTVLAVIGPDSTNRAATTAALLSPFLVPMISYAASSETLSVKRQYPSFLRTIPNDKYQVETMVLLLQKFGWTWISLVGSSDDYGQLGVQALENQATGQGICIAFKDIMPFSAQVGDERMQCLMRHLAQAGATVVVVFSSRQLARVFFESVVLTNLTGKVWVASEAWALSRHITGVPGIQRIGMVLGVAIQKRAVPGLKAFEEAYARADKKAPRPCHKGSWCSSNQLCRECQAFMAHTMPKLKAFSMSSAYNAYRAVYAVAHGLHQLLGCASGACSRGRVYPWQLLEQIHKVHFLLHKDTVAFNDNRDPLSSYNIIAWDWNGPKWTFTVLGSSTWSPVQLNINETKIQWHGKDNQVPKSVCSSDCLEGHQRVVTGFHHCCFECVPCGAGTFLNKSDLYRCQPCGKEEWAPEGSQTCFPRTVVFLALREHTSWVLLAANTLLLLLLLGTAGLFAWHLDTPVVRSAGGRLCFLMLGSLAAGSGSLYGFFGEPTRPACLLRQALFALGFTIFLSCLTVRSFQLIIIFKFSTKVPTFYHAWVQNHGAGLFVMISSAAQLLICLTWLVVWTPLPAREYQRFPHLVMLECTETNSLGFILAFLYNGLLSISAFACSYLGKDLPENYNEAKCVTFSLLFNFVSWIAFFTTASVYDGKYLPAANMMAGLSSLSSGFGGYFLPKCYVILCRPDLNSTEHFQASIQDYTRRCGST
T2 sequence (Q7RTX0 21-852): T1 sequence (Q7RTX0 21-852)
In words: Umami taste enhancement assay: shift of the MSG EC50 (EC50 ratio vs. MSG). The format is cell-based. To be noted: Table E. Here is the method: A series of measurements of the dose response is run in solutions comprising MSG alone, then a second dose response is run with MSG in combination with predetermined amounts of a candidate compound of Formula (I) at the same time.
Typical compound concentrations tested were 30 μM, 10 μM, 3 μM, 1 μM, 0.3 μM, 0.1 μM and 0.03 μM. The relative efficacy of compounds of Formula (I) at enhancing the receptor was determined by calculating the magnitude of a shift in the EC50 for monosodium glutamate. Enhancement was defined as a ratio (EC50R) corresponding to the EC50 of monosodium glutamate, determined in the absence of the test compound, divided by the EC50 of monosodium glutamate, determined in the presence of the test compound.
Stated alternatively, “EC50 ratio” as compared to MSG is calculated based on the following definitions: EC50 Ratio vs. MSG=EC50 (MSG)/EC50 (MSG+[Compound]) • wherein “[compound]” refers to the concentration of the compound of Formula (I) used to elicit (or enhance or potentiate) the MSG dose response.

Setting [4] is: read-out: EC50 for activation of a hT1R2/hT1R3 sweet receptor expressed in an HEK293 cell line.

In the case of `COc1cccc2c1CCC[C@H]2NC(=O)c1cccc(Cl)c1O` [Example 177, (R)-3-Chloro-2-hydroxy-N-(5-methoxy-1,2,3,4-tetrahydronaphthalen-1-yl) benzamide], the melting point lay in the range of 175 to 176 °C. Further, the “Perceived Equivalent Sweet Solution” value in data set [1] (3 μM compound + 6% fructose/glucose, pH 7.1) is reported as “Equal to 10% fructose/glucose”. Also, the EC50 in data set [2] (setting [4]) came to 180 nM.
Consider `Cc1nocc1C(=O)N[C@@H]1CCCc2ccccc21` [Example 175, 3-Methyl-isoxazole-4-carboxylic acid (1,2,3,4-tetrahydro-naphthalen-1-yl)-amide], for which the “Perceived Equivalent Sweet Solution” value in data set [1] (50 μM compound + 4% sucrose, pH not measured or controlled) is given as 6% sucrose. For the same compound, the EC50 in data set [2] (setting [4]) worked out at 5800 nM.
In the case of `O=C(N[C@@H]1CCc2ccccc21)c1cccc(Cl)c1O` [Example E127, (R)-3-chloro-N-(2,3-dihydro-1H-inden-1-yl)-2-hydroxybenzamide], the “Umami EC50 ratio” value in data set [3] is reported as 2.81 (10 M cpd). In addition, the EC50 in data set [2] (Table E, Sweet Enhancer Amides, read-out: Sweet EC50) stood at 950 nM.
`Cc1cc(C)c2c(c1)[C@H](NC(=O)c1conc1C)CCC2` [Example 176, (R)—N—(5,7-Dimethyl-1,2,3,4-tetrahydronaphthalen-1-yl)-3-methylisoxazole-4-carboxamide] displayed a melting point of 124 to 125 °C. Further, in data set [1] (10 μM compound + 7% fructose/glucose, pH 2.8), the “Perceived Equivalent Sweet Solution” value is on record as “Equal to 10.5% fructose/glucose”. Further, the “Perceived Equivalent Sweet Solution” value in data set [1] (10 μM compound + 7% fructose/glucose, pH 7.1) is listed as “Equal to 10% fructose/glucose”. In addition, in data set [2] (setting [4]), the EC50 amounted to 520 nM.
